The supplement of paper PMC10307832

Assays:
Experiment in all cases: relative viability (nuclei count vs DMSO), 5 days (fraction); higher = more cells survive
[1] = compound: C1CC1C(=O)NC2=NNC3=C2C=CC(=C3)C4=CC(=CC=C4)C(=O)NC5CC5 [XMD13-2] + Cc1cc(Nc2cc(N3CCN(C)CC3)nc(Sc3ccc(NC(=O)C4CC4)cc3)n2)n[nH]1 [Tozasertib] (partner 0.1 µM)
How it was run: (§1)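 Lung cancer cell lines were pin-tool dosed in 1536-well plates on the day after seeding, with either a lone drug or a fixed anchor-drug dose plus five library-drug doses (not always all listed) in √10 steps. Nuclei were counted on 4× images after 5 days. Relative viability is the ratio of treated-well to vehicle-well nuclei counts, with each value a median of duplicate plates.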

[2] = compound: C1CC1C(=O)NC2=NNC3=C2C=CC(=C3)C4=CC(=CC=C4)C(=O)NC5CC5 [XMD13-2] + CC(=O)c1c(C)c2cnc(Nc3ccc(N4CCNCC4)cn3)nc2n(C2CCCC2)c1=O [Palbociclib] (partner 0.5 µM)
How it was run: as §1

[3] = compound: Cc1nc(Nc2ncc(C(=O)Nc3c(C)cccc3Cl)s2)cc(N2CCN(CCO)CC2)n1 [Dasatinib] + N=C(N)NC(=N)NCCc1ccccc1 [Phenformin] (partner 250 µM)
How it was run: as §1

[4] = compound: Cc1ccc(C(=O)Nc2cccc(C(F)(F)F)c2)cc1Nc1cncc(C(N)=O)c1 [ALW-II-49-7] + COc1cccc2cc(-c3nc([C@H]4CC[C@H](C(=O)O)CC4)n4ncnc(N)c34)[nH]c12 [OSI-027] (partner 0.5 µM)
How it was run: as §1

| Cell Line | relative viability ([1]; first compound 0.05 µM) | relative viability ([1]; first compound 0.1581 µM) | relative viability ([1]; first compound 0.5 µM) | relative viability ([1]; first compound 1.581 µM) | relative viability ([1]; first compound 5 µM) | relative viability ([2]; first compound 0.05 µM) | relative viability ([2]; first compound 0.1581 µM) | relative viability ([2]; first compound 0.5 µM) | relative viability ([2]; first compound 1.581 µM) | relative viability ([2]; first compound 5 µM) | relative viability ([3]; first compound 0.005 µM) | relative viability ([3]; first compound 0.01581 µM) | relative viability ([3]; first compound 0.05 µM) | relative viability ([3]; first compound 0.1581 µM) | relative viability ([3]; first compound 0.5 µM) | relative viability ([4]; first compound 0.08 µM) | relative viability ([4]; first compound 0.253 µM) | relative viability ([4]; first compound 0.8 µM) | relative viability ([4]; first compound 2.53 µM) | relative viability ([4]; first compound 8 µM) |
| --- | --- | --- | --- | --- | --- | --- | --- | --- | --- | --- | --- | --- | --- | --- | --- | --- | --- | --- | --- | --- |
| HARA | 0.0933 | 0.117 | 0.106 | 0.0964 | 0.105 | 0.265 | 0.313 | 0.25 | 0.273 | 0.245 | 0.422 | 0.39 | 0.472 | 0.273 | 0.0965 | 0.547 | 0.441 | 0.298 | 0.387 | 0.442 |
| LU99A | 0.301 | 0.294 | 0.287 | 0.263 | 0.272 | 0.402 | 0.38 | 0.391 | 0.402 | 0.27 | 0.845 |  | 0.888 | 0.752 | 0.472 | 0.293 | 0.288 | 0.282 | 0.282 | 0.294 |
| NCI-H1944 | 0.275 | 0.243 | 0.229 | 0.239 | 0.221 | 0.323 | 0.312 | 0.325 | 0.351 | 0.322 | 0.185 | 0.149 | 0.15 | 0.154 | 0.123 | 0.393 | 0.413 | 0.397 | 0.353 | 0.303 |
| LK-2 | 0.187 | 0.169 | 0.173 | 0.18 | 0.149 | 0.666 | 0.557 | 0.698 | 0.776 | 0.593 | 0.464 | 0.23 | 0.257 | 0.166 | 0.163 | 0.202 | 0.205 | 0.213 |  | 0.186 |
| NCI-H441 | 0.808 | 0.652 | 0.608 | 0.591 | 0.53 | 0.239 | 0.224 | 0.219 | 0.225 | 0.28 | 0.921 | 0.912 | 0.862 | 0.547 | 0.401 | 0.657 | 0.57 | 0.867 | 0.48 | 0.466 |
| NCI-H23 | 0.325 | 0.382 | 0.397 | 0.644 | 0.355 | 0.572 | 0.514 | 0.502 | 0.58 | 0.658 | 0.841 | 0.752 | 0.929 | 0.655 | 0.607 | 0.52 | 0.492 | 0.476 | 0.562 | 0.475 |
| NCI-H647 | 0.585 | 0.265 | 0.176 | 0.229 | 0.135 | 0.491 | 0.384 | 0.408 | 0.5 | 0.225 | 0.465 | 0.366 | 0.257 | 0.197 | 0.141 | 0.665 | 0.736 | 0.495 | 0.434 | 0.619 |
| 201T | 1.02 | 0.921 | 0.867 | 0.872 | 0.828 | 0.356 | 0.377 | 0.539 | 0.357 | 0.34 | 0.446 | 0.33 | 0.338 | 0.341 | 0.221 | 0.68 | 0.841 | 0.462 | 0.493 | 0.684 |
| NCI-H1734 | 0.258 | 0.245 | 0.271 | 0.228 | 0.205 | 0.413 | 0.332 | 0.361 | 0.358 | 0.297 | 0.314 | 0.328 | 0.288 | 0.249 | 0.235 | 0.602 | 0.652 | 0.55 | 0.556 | 0.534 |
